From patent US20230027066A1 (Urovant Sciences GmbH, priority 2019, published 2023)

Test system: men and women with overactive bladder
Test: Phase 3 study of vibegron 75 mg vs placebo and tolterodine ER 4 mg, 12 weeks, efficacy (voiding and urine volume diary)
Assay type: in vivo, human
Conditions: for Patients with at Least 50% Reduction in Urgency Episodes, Adjusted n / Patients with at Least 50% Reduction in Urgency Episodes, Unadjusted (%) / Patients with at Least 50% Reduction in Urgency Episodes, Unadjusted n / Urgency 50% responders, Active - Placebo CMH Difference / Patients with at Least 50% Reduction in Urgency Episodes, Adjusted (%): Dry population; for Urgency Episodes, Week 12 CFB Mean: descriptive statistics; for Micturitions: LS Mean (95% CI): Table 32, week 12
Protocol: Enrollment of patients included individuals with OAB Wet (those with UUI, the involuntary loss of urine accompanied by urgency) and OAB Dry (those without UUI). A total of 1,518 patients were randomized across 215 study sites into one of three groups for a 12-week treatment period.
The study consisted of a Screening Period (1 to 5 weeks), a single-blind Run-in Period (2 weeks), a randomized double-blind Treatment Period (12 weeks), and a Follow-up Period (4 weeks).
Tolterodine ER 4 mg was the active control. […] Between the Baseline and Week 12 Visits, patients had study assessments at Week 4 and Week 8.
The Patient Voiding Diary was used by participants (via the eDiary or paper Diary) to record the frequency of daily OAB symptoms including all micturitions, urgency, incontinence, and main reason for incontinence by selecting the respective box for each symptom occurring during the course of a given day and night.
Urine volume data were collected separately by patients using the Urine Volume component of the eDiary, or the paper Urine Volume Chart. The Urine Volume Chart is a tool used in clinical practice and clinical investigation to assess voiding functions over a 24-hour period and is regarded as a useful instrument in the investigation of patients with voiding symptoms. Urine volume may be collected during any one (1) of the 7 Diary Days prior to the visit, and it should be recorded for ˜24 hours starting from the time the patient gets up for the day and continues until the time the patient gets up for the day on the next day.
For the purpose of this study, the number of micturitions was defined as the number of times a patient has voided in the toilet as indicated on the Patient Voiding Diary. Average daily micturitions were calculated using the daily entries in the Patient Voiding Diary, which was completed over the 7 days prior to each study visit. Average daily number of micturitions were calculated as the total number of micturitions that occurred on a Complete Diary Day divided by the number of Complete Diary Days in the Patient Voiding Diary. A complete diary day required confirmation by the patient in the Patient Voiding Diary that all voids and leakages had been recorded for the diary day. Baseline was defined as the average number of micturitions occurring during the last evaluable diary prior to the Baseline Visit.
The number of UUI episodes was defined as the number of times a patient had checked “urge” as the reason for accidental urine leakage. Average daily UUI episodes at each study visit were calculated in the same manner as described above for the micturition endpoint. The UUI endpoint were analyzed using only OAB Wet patients.
For the analysis of the co-primary endpoints (change from baseline in average number of daily micturitions at Week 12 and change from baseline in average number of daily urge urinary incontinence episodes at Week 12, and placebo adjustment of each), a mixed model for repeated measure (MMRM) with restricted maximum likelihood estimation was used. This model corrects for dropout and accounts for the fact that measurements taken on the same patient over time tend to be correlated by using all available information on patients within the same covariate set to derive an estimate of the treatment effect for a dropout-free population. The analysis model for each efficacy endpoint includes terms for treatment, visit, OAB Type (Wet vs Dry), Sex (Female vs Male), Region (US vs Rest of World), baseline score, and interaction of visit by treatment.
Primary inferences were drawn from treatment differences for the changes from baseline derived from the MMRM models at Week 12. As part of secondary objectives, the treatment differences for each post baseline visit were also derived using the same MMRM model. […]

[1] = No prior anticholinergic use during the prior 12 months
[2] = No prior mirabegron use during the prior 12 months
[3] = Overall, events of Events/Censored
[4] = Prior anticholinergic use during the prior 12 months
[5] = Prior mirabegron use during the prior 12 months
[6] = Week 2, events of Events/Censored
[7] = Week 4, events of Events/Censored

In the case of `O=C(Nc1ccc(C[C@@H]2CC[C@H]([C@H](O)c3ccccc3)N2)cc1)[C@@H]1CCc2nccc(=O)n21` [Vibegron, (6S)-N-[4-[[(2S,5R)−5-[(R)-hydroxy(phenyl)methyl]pyrrolidin−2-yl]methyl]phenyl]−4-oxo−7,8-dihydro−6H-pyrrolo[1,2-a]pyrimidine−6-carboxamide], the “Patients with at Least 50% Reduction in Urgency Episodes, Adjusted n” value (baseline to Week 4) is reported as 28, the “Patients with at Least 50% Reduction in Urgency Episodes, Unadjusted (%)” value (baseline to Week 4) is reported as 25.2% and the “Patients with at Least 50% Reduction in Urgency Episodes, Unadjusted n” value (baseline to Week 4) is reported as 31. For the same compound, the “Urgency 50% responders, Active - Placebo CMH Difference” value (baseline to Week 4) was 5.4, the “Patients with at Least 50% Reduction in Urgency Episodes, Adjusted (%)” value (baseline to Week 8) was 31.9% and the “Patients with at Least 50% Reduction in Urgency Episodes, Adjusted n” value (baseline to Week 8) was 39. The “Patients with at Least 50% Reduction in Urgency Episodes, Unadjusted (%)” value (baseline to Week 8) was 35.0%, the “Patients with at Least 50% Reduction in Urgency Episodes, Unadjusted n” value (baseline to Week 8) was 43 and the “Urgency 50% responders, Active - Placebo CMH Difference” value (baseline to Week 8) was 12.4. The “Patients with at Least 50% Reduction in Urgency Episodes, Adjusted (%)” value (baseline to Week 12) was 36.9%, the “Patients with at Least 50% Reduction in Urgency Episodes, Adjusted n” value (baseline to Week 12) was 45 and the “Patients with at Least 50% Reduction in Urgency Episodes, Unadjusted (%)” value (baseline to Week 12) was 43.1%. The “Patients with at Least 50% Reduction in Urgency Episodes, Unadjusted n” value (baseline to Week 12) was 53, the “Urgency 50% responders, Active - Placebo CMH Difference” value (baseline to Week 12) was 13.9 and the “Urgency Episodes, Week 12 CFB Mean” value (Males with BPH) was −1.90. The “Urgency Episodes, Week 12 CFB Mean” value (Males without BPH) was −2.56, the “Urgency Episodes, Week 12 CFB Mean” value (No Prior ACH Use in last 12 Mo.) was −3.00 and the “Urgency Episodes, Week 12 CFB Mean” value (No Prior B3 Agonist Use in last 12 Mo.) was −2.94. For the same compound, the “Micturitions, 12-week change” value [1] was −2.1, the “UUI Episodes, 12-week change” value [1] was −2.1 and the “Micturitions, 12-week change” value [2] was −2.0. For the same compound, the “UUI Episodes, 12-week change” value [2] was −2.0, the “Overall Time to First 50% Decrease in Urgency Episodes, 25th Percentile” value (Overall) was 4.1 weeks and the “Overall Time to First 50% Decrease in Urgency Episodes, 50th Percentile” value (Overall) was 12.3 weeks. The “Overall Time to First 50% Decrease in Urgency Episodes, Median (95% CI)” value (Overall) was 12.3 (12.1 to 12.6) weeks, the “Overall Time to First 100% Decrease in UUI Episodes, 25th Percentile” value (Overall) was 8.1, NE weeks and the “Overall Time to First 100% Decrease in UUI Episodes, Median (95% CI)” value (Overall) was 13.3 (12.9 to NE) weeks. The “Urgency Episodes, Week 12 CFB Mean” value (Overall) was −2.93, the “First 50% Decrease in Urgency Episodes, Events” value [3] was 256/270 and the “First 100% Decrease in UUI Episodes, Events” value [3] was 146/257. For the same compound, the “Urgency Episodes, Week 12 CFB Mean” value (Prior ACH Use in last 12 Mo.) was −2.50, the “Urgency Episodes, Week 12 CFB Mean” value (Prior B3 Agonist Use in last 12 Mo.) was −2.56 and the “Micturitions, 12-week change” value [4] was −1.97. For the same compound, the “UUI Episodes, 12-week change” value [4] was −1.46, the “Micturitions, 12-week change” value [5] was −2.83 and the “UUI Episodes, 12-week change” value [5] was −1.64. The “Micturitions: LS Mean (95% CI)” value (Age <65 years) was −0.2 (−0.6 to 0.2), the “Micturitions: LS Mean (95% CI)” value (Age ≥65 years) was −0.9 (−1.3 to −0.4) and the “Micturitions: LS Mean (95% CI)” value (Age ≥75 years (posthoc analysis)) was −1.0 (−1.8 to −0.1). For the same compound, the “Micturitions: LS Mean (95% CI)” value (Females) was −0.5 (−0.8 to −0.2), the “Micturitions: LS Mean (95% CI)” value (Males) was −0.6 (−1.4 to 0.1) and the “Micturitions: LS Mean (95% CI)” value (Non-White) was −0.5 (−1.2 to 0.1). For the same compound, the “Micturitions: LS Mean (95% CI)” value (OAB Type: Dry) was −0.7 (−1.4 to −0.1), the “Micturitions: LS Mean (95% CI)” value (OAB Type: Wet) was −0.5 (−0.8 to −0.1) and the “Micturitions: LS Mean (95% CI)” value (Overall) was −0.5 (−0.8 to −0.2). For the same compound, the “Micturitions: LS Mean (95% CI)” value (Region: Non-US) was −0.4 (−1.4 to 0.5), the “Micturitions: LS Mean (95% CI)” value (Region: US) was −0.5 (−0.8 to −0.2) and the “Micturitions: LS Mean (95% CI)” value (White) was −0.5 (−0.8 to −0.2). The “Average Daily Number of Total Incontinence, Mean (SD)” value (Week 2) was 2.53 (3.118), the “Average daily number of urgency episodes, Mean (SD)” value (Week 2) was 6.47 (4.458) and the “Average volume voided per micturition, Active - Placebo LS Mean Difference” value (Week 2) was 11.9 mL. For the same compound, the “Change from Baseline in Average Daily Number of Total Incontinence, LS Mean (SE)” value (“Change … of Total Incontinence, LS Mean (SE)” below) (Week 2) was −1.6 (0.14), the “Change from baseline in average daily number of urgency episodes, LS Mean” value (“Change … of urgency episodes, LS Mean” below) (Week 2) was −1.5 and the “Change from baseline in average volume voided per micturition, LS Mean (SE)” value (Week 2) was 14.2 (3.02) mL. The “Estimated Incidence of Subjects with 50% Decrease from Baseline (urgency episodes)” value (Week 2) was 19.6, the “Estimated Incidence of Subjects with 100% Decrease from Baseline (UUI episodes)” value (Week 2) was 7.4 and the “Total Incontinence, Active - Placebo LS Mean Difference (SE)” value (Week 2) was −0.7 (0.14). For the same compound, the “Urgency episodes, Active - Placebo LS Mean Difference” value (Week 2) was −0.6, the “First 50% Reduction in Urgency Episodes, Events” value [6] was 103/423 and the “First 100% Reduction in UUI Episodes, Events” value [6] was 30/373. For the same compound, the “Average volume voided per micturition, Week 2 Mean (SD)” value (Week 2, vibegron 75 mg, tolterodine ER 4 mg) was 165.6 (74.26) mL, the “Average Daily Number of Total Incontinence, Mean (SD)” value (Week 4) was 2.28 (3.239) and the “Average daily number of urgency episodes, Mean (SD)” value (Week 4) was 6.02 (4.458). For the same compound, the “Average volume voided per micturition, Active - Placebo LS Mean Difference” value (Week 4) was 14.5 mL, the “Average volume voided per micturition, Week 4 Mean (SD)” value (Week 4) was 172.6 (76.57) mL and the “Change … of Total Incontinence, LS Mean (SE)” value (Week 4) was −1.9 (0.14). The “Change … of urgency episodes, LS Mean” value (Week 4) was −1.9, the “Change from baseline in average volume voided per micturition, LS Mean (SE)” value (Week 4) was 18.9 (3.15) mL and the “Estimated Incidence of Subjects with 50% Decrease from Baseline (urgency episodes)” value (Week 4) was 21.1. For the same compound, the “Estimated Incidence of Subjects with 100% Decrease from Baseline (UUI episodes)” value (Week 4) was 9.2, the “Total Incontinence, Active - Placebo LS Mean Difference (SE)” value (Week 4) was −0.8 (0.14) and the “Urgency episodes, Active - Placebo LS Mean Difference” value (Week 4) was −0.8. The “First 50% Reduction in Urgency Episodes, Events” value [7] was 111/415, the “First 100% Reduction in UUI Episodes, Events” value [7] was 37/366 and the “Average Daily Number of Total Incontinence, Mean (SD)” value (Week 8) was 2.05 (3.245). The “Average daily number of urgency episodes, Mean (SD)” value (Week 8) was 5.58 (4.399), the “Average volume voided per micturition, Active - Placebo LS Mean Difference” value (Week 8) was 18.3 mL and the “Average volume voided per micturition, Week 8 Mean (SD)” value (Week 8) was 173.4 (81.95) mL. The “Change … of Total Incontinence, LS Mean (SE)” value (Week 8) was −2.1 (0.15) and the “Change … of urgency episodes, LS Mean” value (Week 8) was −2.4.
